Experimental data from US20210127673A1, “HERBICIDES” (SYNGENTA PARTICIPATIONS AG, priority 2016, published 2021).

Columns and labels:
Assay type in all cases: in vivo
Details in all cases: 1000 g/ha, evaluated after 13 days
[1] = test system: Setaria faberi (SETFA); assay: Post-emergence herbicidal activity, Setaria faberi; design: key: 5=total damage to plant; 0=no damage to plant
Outline: (§1)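 Post-em, 8 d plants, pots; acetone:water 1:1 + 0.5% Tween 20 spray; 24/16 °C, 14 h photoperiod, 65% RH; 13 d readout, 0–5 phytotoxicity scale.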

[2] = test system: Triticum aestivium (TRZAW); assay: Pre-emergence herbicidal activity, Triticum aestivium; design: key: 5=total damage to plant; 0=no damage to plant
Outline: (§2)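 Compound is applied as an aqueous spray (acetone/water 50:50, 0.5% Tween 20) to pots one day after sowing, before emergence. Growth continues in a glasshouse at 24/16 °C, 14 h photoperiod, 65% humidity, with twice-daily watering, and injury is graded after 13 days from 0 (no damage) to 5 (total damage).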

[3] = test system: Echinochloa crus-galli (ECHCG); assay: Pre-emergence herbicidal activity, Echinochloa crus-galli
Outline: as §2

[4] = test system: Avena fatua (AVEFA); assay: Pre-emergence herbicidal activity, Avena fatua; design: key: 5=total damage to plant; 0=no damage to plant
Outline: as §2

[5] = test system: Setaria faberi (SETFA); assay: Pre-emergence herbicidal activity, Setaria faberi
Outline: as §2

[6] = test system: Alopecurus myosuroides (ALOMY); assay: Pre-emergence herbicidal activity, Alopecurus myosuroides; design: key: 5=total damage to plant; 0=no damage to plant
Outline: as §2

[7] = test system: Lolium perenne (LOLPE); assay: Pre-emergence herbicidal activity, Lolium perenne; design: key: 5=total damage to plant; 0=no damage to plant
Outline: as §2

[8] = test system: Alopecurus myosuroides (ALOMY); assay: Post-emergence herbicidal activity, Alopecurus myosuroides; design: key: 5=total damage to plant; 0=no damage to plant
Outline: as §1

[9] = test system: Avena fatua (AVEFA); assay: Post-emergence herbicidal activity, Avena fatua
Outline: as §1

[10] = test system: Echinochloa crus-galli (ECHCG); assay: Post-emergence herbicidal activity, Echinochloa crus-galli; design: key: 5=total damage to plant; 0=no damage to plant
Outline: as §1

[11] = test system: Triticum aestivium (TRZAW); assay: Post-emergence herbicidal activity, Triticum aestivium; design: key: 5=total damage to plant; 0=no damage to plant
Outline: as §1

[12] = test system: Lolium perenne (LOLPE); assay: Post-emergence herbicidal activity, Lolium perenne
Outline: as §1

Compound | Control of SETFA after post-emergence application (score 0-5) [1] | Control of TRAZW after pre-emergence application (score 0-5) [2] | Control of ECHCG after pre-emergence application (score 0-5) [3] | Control of AVEFA after pre-emergence application (score 0-5) [4] | Control of SETFA after pre-emergence application (score 0-5) [5] | Control of ALOMY after pre-emergence application (score 0-5) [6] | Control of LOLPE after pre-emergence application (score 0-5) [7] | Control of ALOMY after post-emergence application (score 0-5) [8] | Control of AVEFA after post-emergence application (score 0-5) [9] | Control of ECHCG after post-emergence application (score 0-5) [10] | Control of TRAZW after post-emergence application (score 0-5) [11] | Control of LOLPE after post-emergence application (score 0-5) [12]
CC(C)(C)NC(=O)Nc1ccc(-c2cncc(F)c2)nc1C(F)(F)F [Compound B65] | 4 | 0 | 2 | 2 | 3 | 1 | 1 | 1 | 3 | 5 | 0 | 3
CN(C(=O)N1CCOCC1)c1ccc(-c2cncc(F)c2)nc1C(F)(F)F [Compound B67] | 4 | 0 | 3 | 0 | 4 | 0 | 1 | 1 | 2 | 4 | 1 | 1
O=C(Nc1ccc(-c2cncc(F)c2)nc1C(F)(F)F)N1CCSC1 [Compound B68, N-[6-(5-fluoro-3-pyridyl)-2-(trifluoromethyl)-3-pyridyl]thiazolidine-3-carboxamide] | 5 | 0 | 3 | 2 | 4 | 1 | 1 | 0 | 3 | 5 | 2 | 2
O=C(Nc1ccc(-c2cncc(F)c2)nc1C(F)(F)F)NN1CCOCC1 [Compound B69] | 4 | 0 | 2 | 1 | 4 | 0 | 1 | 0 | 3 | 4 | 1 | 2
O=C(Nc1cncnc1)Nc1ccc(-c2cncc(F)c2)nc1C(F)(F)F [Compound B70] | 3 | 0 | 1 | 0 | 2 | 0 | 0 | 0 | 1 | 3 | 1 | 1
O=C(Nc1ccccc1)Nc1ccc(-c2cncc(F)c2)nc1C(F)(F)F [Compound B71] | 3 | 0 | 1 | 0 | 1 | 0 | 0 | 0 | 2 | 3 | 1 | 2
